Like-named read-outs stand apart in the source and are kept apart here.
Legend:
[1] = test system: citrus canker pathogen (Xac); test: Turbidimetric anti-plant bacterial activity test, citrus canker pathogen; type: cell-based, Xanthomonas axonopodis pv. citri
[2] = test system: tobacco bacterial wilt pathogen (Rs); type: cell-based, Ralstonia solanacearum
[3] = test system: rice bacterial wilt pathogen (Xoo); type: cell-based, Xanthomonas oryzae pv. oryzae

Row | Compound | Inhibition Rate ([1]; 50 μg/mL) | Inhibition Rate ([1]; 100 μg/mL) | Inhibition Rate ([2]; 50 μg/mL) | Inhibition Rate ([2]; 100 μg/mL) | Inhibition Rate ([3]; 50 μg/mL) | Inhibition Rate ([3]; 100 μg/mL)
1 | COc1cc(OC)c2c(=O)c(OCCCCN(C)C3CCN(S(=O)(=O)c4ccc(F)cc4)CC3)c(-c3cc(OC)c(OC)c(OC)c3)oc2c1 [Compound I13] | 47.25 ± 4.42% | 48.08 ± 1.17% | 43.16 ± 3.98% | 49.25 ± 4.14% | 99.72 ± 1.10% | 100.00 ± 0.67%
2 | COc1cc(OC)c2c(=O)c(OCCCCN(C)C3CCN(S(=O)(=O)c4ccccn4)CC3)c(-c3cc(OC)c(OC)c(OC)c3)oc2c1 [Compound I18] | 88.69 ± 0.71% | 93.05 ± 0.55% | 46.22 ± 3.27% | 30.11 ± 1.65% | 70.98 ± 3.04% | 78.12 ± 4.25%
3 | COc1cc(OC)c2c(=O)c(OCCCN(C)C3CCN(S(=O)(=O)c4ccccn4)CC3)c(-c3cc(OC)c(OC)c(OC)c3)oc2c1 [Compound I8] | 85.13 ± 2.35% | 88.03 ± 1.19% | 47.65 ± 0.35% | 48.99 ± 2.35% | 52.14 ± 3.12% | 59.94 ± 3.35%
4 | COc1cc(OC)c2c(=O)c(OCCCCN(C)C3CCN(S(=O)(=O)c4ccc5cccnc5c4)CC3)c(-c3cc(OC)c(OC)c(OC)c3)oc2c1 [Compound I19] | 85.44 ± 1.04% | 89.05 ± 0.47% | 37.71 ± 3.71% | 35.21 ± 6.56% | 38.72 ± 1.36% | 51.83 ± 2.05%
5 | COc1cc(OC)c2c(=O)c(OCCCN(C)C3CCN(S(=O)(=O)c4ccc(F)cc4)CC3)c(-c3cc(OC)c(OC)c(OC)c3)oc2c1 [Compound I3] | 88.81 ± 1.32% | 94.73 ± 1.63% | 56.37 ± 3.41% | 55.25 ± 2.35% | 9.99 ± 7.64% | 53.31 ± 3.55%
6 | Nc1nnc([S-])s1.Nc1nnc([S-])s1.[Cu+2] [Thiabenone, thiodiazole copper, reference compound] | 44.97% | 70.68% | 20.86 ± 4.42% | 40.20% | 58.92% | 70.12%
7 | COc1ccc(S(=O)(=O)N2CCC(N(C)CCCCOc3c(-c4cc(OC)c(OC)c(OC)c4)oc4cc(OC)cc(OC)c4c3=O)CC2)cc1 [Compound I15] | 62.21 ± 1.33% | 67.94 ± 1.42% | 3.13 ± 5.57% | 24.02 ± 2.41% | 94.39 ± 0.62% | 96.11 ± 0.71%
8 | bismerthiazol [Leaf Blight Azole, reference compound] | 50.60% | 66.63% | 57.63% | 65.69% | 39.14% | 60.50%
9 | COc1ccc(S(=O)(=O)N2CCC(N(C)CCCOc3c(-c4cc(OC)c(OC)c(OC)c4)oc4cc(OC)cc(OC)c4c3=O)CC2)cc1 [Compound I5] | 84.37 ± 1.91% | 95.86 ± 1.19% | 18.66 ± 9.95% | 49.03 ± 5.33% | 56.37 ± 2.44% | 68.42 ± 4.76%
10 | COc1cc(OC)c2c(=O)c(OCCCCN(C)C3CCN(S(=O)(=O)c4ccc5ccccc5c4)CC3)c(-c3cc(OC)c(OC)c(OC)c3)oc2c1 [Compound I12] | 29.56 ± 7.62% | 35.81 ± 2.40% | 45.75 ± 3.32% | 36.46 ± 7.42% | 89.81 ± 1.34% | 95.44 ± 4.92%
11 | COc1cc(OC)c2c(=O)c(OCCCN(C)C3CCN(S(=O)(=O)c4ccc(C)cc4)CC3)c(-c3cc(OC)c(OC)c(OC)c3)oc2c1 [Compound I1] | 93.55 ± 0.85% | 99.20 ± 4.48% | 47.86 ± 5.55% | 58.01 ± 6.08% | 75.88 ± 1.80% | 81.34 ± 0.57%
12 | COc1cc(OC)c2c(=O)c(OCCCCN(C)C3CCN(S(=O)(=O)c4ccc(C)cc4)CC3)c(-c3cc(OC)c(OC)c(OC)c3)oc2c1 [Compound I11] | 47.25 ± 5.84% | 54.94 ± 8.29% | 46.83 ± 6.39% | 93.56 ± 0.55% | 71.76 ± 4.56% | 87.57 ± 2.76%
13 | COc1cc(OC)c2c(=O)c(OCCCN(C)C3CCN(S(=O)(=O)c4ccc([N+](=O)[O-])cc4)CC3)c(-c3cc(OC)c(OC)c(OC)c3)oc2c1 [Compound I6] | 96.13 ± 1.63% | 99.01 ± 0.64% | 26.01 ± 6.89% | 59.09 ± 4.18% | 52.08 ± 6.32% | 60.99 ± 5.49%
14 | COc1cc(OC)c2c(=O)c(OCCCCN(C)C3CCN(S(=O)(=O)c4ccc([N+](=O)[O-])cc4)CC3)c(-c3cc(OC)c(OC)c(OC)c3)oc2c1 [Compound I16] | 66.33 ± 3.56% | 74.41 ± 1.31% | 27.52 ± 7.50% | 26.66 ± 4.37% | 55.67 ± 6.24% | 70.41 ± 2.62%
15 | COc1cc(OC)c2c(=O)c(OCCCCN(C)C3CCN(S(=O)(=O)c4cccs4)CC3)c(-c3cc(OC)c(OC)c(OC)c3)oc2c1 [Compound I14] | 66.18 ± 0.61% | 73.80 ± 3.68% | 20.44 ± 5.03% | 8.17 ± 3.75% | 92.19 ± 0.98% | 95.49 ± 0.98%
16 | COc1cc(OC)c2c(=O)c(OCCCCN(C)C3CCN(S(=O)(=O)c4ccccc4)CC3)c(-c3cc(OC)c(OC)c(OC)c3)oc2c1 [Compound I17] | 99.00 ± 0.40% | 99.52 ± 0.87% | 45.66 ± 3.26% | 38.06 ± 1.91% | 89.16 ± 1.26% | 98.29 ± 2.42%
17 | COc1cc(OC)c2c(=O)c(OCCCN(C)C3CCN(S(=O)(=O)c4ccccc4[N+](=O)[O-])CC3)c(-c3cc(OC)c(OC)c(OC)c3)oc2c1 [Compound I10] | 38.60 ± 4.17% | 45.69 ± 0.50% | 57.89 ± 3.30% | 94.99 ± 1.50% | 59.65 ± 2.25% | 67.71 ± 2.22%
18 | COc1cc(OC)c2c(=O)c(OCCCN(C)C3CCN(S(=O)(=O)c4cccs4)CC3)c(-c3cc(OC)c(OC)c(OC)c3)oc2c1 [Compound I4] | 76.83 ± 2.59% | 81.47 ± 3.58% | 46.44 ± 8.48% | 58.19 ± 8.11% | 21.34 ± 3.45% | 48.16 ± 4.24%
19 | COc1cc(OC)c2c(=O)c(OCCCCN(C)C3CCN(S(=O)(=O)c4ccccc4[N+](=O)[O-])CC3)c(-c3cc(OC)c(OC)c(OC)c3)oc2c1 [Compound I20] | 96.57 ± 0.31% | 97.30 ± 1.97% | 21.26 ± 8.58% | 4.11 ± 3.12% | 90.29 ± 4.84% | 94.47 ± 8.30%
20 | COc1cc(OC)c2c(=O)c(OCCCN(C)C3CCN(S(=O)(=O)c4ccc5ccccc5c4)CC3)c(-c3cc(OC)c(OC)c(OC)c3)oc2c1 [Compound I2] | 92.76 ± 2.12% | 99.55 ± 5.61% | 34.17 ± 5.87% | 30.28 ± 8.79% | 88.53 ± 5.30% | 99.01 ± 4.53%
21 | COc1cc(OC)c2c(=O)c(OCCCN(C)C3CCN(S(=O)(=O)c4ccc5cccnc5c4)CC3)c(-c3cc(OC)c(OC)c(OC)c3)oc2c1 [Compound I9] | 32.80 ± 2.29% | 42.50 ± 1.87% | 12.10 ± 2.57% | 28.82 ± 3.37% | 37.31 ± 5.41% | 40.25 ± 1.39%

From patent publication US12063930B2, “Sulfonamide-containing 4-(N-methyl) aminopiperidine myricetin derivatives, preparation method and application” (Guizhou University, priority 2019, dated 2024)
